Experiment [1] concerns the target Sigma non-opioid intracellular receptor 1 (Cavia porcellus, UniProt Q60492). Description: Displacement of [3H]-(+)-pentazocine from sigma1 receptor in guinea pig brain cortex membranes measured after 120 mins by scintillation counting method. The experiment is classed as cell membranes. In general terms: Loss of bound radioactivity is the signal in a displacement assay; it reports binding, not function.

Experiment [2] deals with T1, Sigma intracellular receptor 2 (Rattus norvegicus, UniProt Q5U3Y7).
T1 sequence (Q5U3Y7 whole entry): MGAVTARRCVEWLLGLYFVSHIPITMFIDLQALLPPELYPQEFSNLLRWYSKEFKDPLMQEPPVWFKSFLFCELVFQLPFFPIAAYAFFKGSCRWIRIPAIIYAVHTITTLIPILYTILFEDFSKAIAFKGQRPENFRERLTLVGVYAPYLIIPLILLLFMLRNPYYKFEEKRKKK
In words: Displacement of [3H]DTG from sigma 2 receptor in rat liver membranes measured after 120 mins by scintillation counting method. The experiment is classed as cell membranes, Membrane.

Experiment [3] in a line: Selectivity ratio of Ki for displacement of [3H]DTG from sigma 2 receptor in rat liver membranes to Ki for displacement of [3H]-(+)-pentazocine from sigma1 receptor in guinea pig brain cortex membranes. The experiment is classed as cell membranes.
The target of experiment [4] is T2, Sigma intracellular receptor 2 (Rattus norvegicus) (UniProt Q5U3Y7).
T2 sequence (whole entry): T1 sequence (Q5U3Y7 whole entry)
Description: Displacement of [3H]DTG from sigma 2 receptor in rat liver membranes at 1 uM measured after 120 mins by scintillation counting method. The experiment is classed as cell membranes. Conditions: Membrane.

Experiment [5] addresses Sigma non-opioid intracellular receptor 1 (Cavia porcellus) (UniProt Q60492). Description: Displacement of [3H]-(+)-pentazocine from sigma1 receptor in guinea pig brain cortex membranes at 1 uM measured after 120 mins by scintillation counting method. In kind it is cell membranes.

Some results are limits rather than exact numbers.

Chain of Sigma non-opioid intracellular receptor 1 (Q60492 whole entry): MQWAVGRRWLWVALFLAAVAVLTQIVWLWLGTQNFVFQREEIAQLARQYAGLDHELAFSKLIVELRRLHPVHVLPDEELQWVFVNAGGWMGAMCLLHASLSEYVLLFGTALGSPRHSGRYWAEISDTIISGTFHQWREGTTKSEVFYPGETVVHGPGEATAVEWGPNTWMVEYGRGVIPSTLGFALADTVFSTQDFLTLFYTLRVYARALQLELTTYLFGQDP
Chain of Sigma non-opioid intracellular receptor 1 (Cavia porcellus) (Q60492 whole entry): as above

By Ki is commonly meant the equilibrium dissociation constant of an inhibitor or competing ligand from its target. A low value points to a stronger hold on the target. Regarding `c1ccc(CN2CCC34CCCCC3(CCC4)C2)cc1` (racemic), the Ki in experiment [1] worked out at 17 nM; in experiment [2], 190 nM. Moreover, in experiment [3], the Ratio Ki was found to be 11.
Consider `OC1CC23CCCCC2(C1)CN(Cc1ccccc1)CC3` (racemic; anti) [listing 1 of 2 here], for which the inhibitory constant (Ki) in experiment [1] turned out to be 122 nM; in experiment [2], 2040 nM.
`COc1ccc(C)cc1NC(=O)OC1CC23CCCCC2(C1)CN(Cc1ccccc1)CC3` (racemic; anti) [listing 1 of 2 here] had a Ki in experiment [1] of 82 nM.
The inhibition is the percentage by which the read-out fell short of the control. Read a low inhibition as little suppression. As for `COc1ccc(C)cc1NC(=O)OC1CC23CCCCC2(C1)CN(Cc1ccccc1)CC3` (racemic; anti) [listing 2 of 2 here], the inhibition in experiment [4] came out at 8%. For the same molecule, the Ratio Ki in experiment [3] is over 12.
For `OC1CC23CCCCC2(C1)CN(Cc1ccccc1)CC3` (racemic; anti) [listing 2 of 2 here], the Ratio Ki in experiment [3] was determined as 17.
Consider `OC1CC23CCCCC2(C1)CN(Cc1ccccc1)CC3` (racemic; syn) [listing 1 of 2 here], for which the figures for the inhibitory constant (Ki) in experiment [1] and in experiment [2] were 336 nM and 690 nM, respectively.
In the case of `COc1ccc(C)cc1NC(=O)OC1CC23CCCCC2(C1)CN(Cc1ccccc1)CC3` (racemic; syn), the inhibition was determined as 12% in experiment [5] and 0% in experiment [4].
`OC1CC23CCCCC2(C1)CN(Cc1ccccc1)CC3` (racemic; syn) [listing 2 of 2 here]: the Ratio Ki in experiment [3] was 2.

The values above are taken from ChEMBL document CHEMBL4219097, “Synthesis of 3-aza[4.4.3]propellanes with high σ1 receptor affinity” (Bioorg Med Chem, 2018).
